In the METLIN SMRT retention time set (Domingo-Almenara et al. 2019):

Experiment: gradient 5% acetonitrile 3 min, to 50% in 2 min, to 85% in 15 min, held 3 min, 100 µL/min
Settings: column: Zorbax Extend-C18 2.1 x 50 mm; eluents: water / acetonitrile, 0.1% formic acid
Summary of the method: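 Mixtures of ~100 pure standards were chromatographed on a Zorbax Extend-C18 column (2.1 × 50 mm, 1.8 μm) at 100 μL/min using water and acetonitrile, each with 0.1% formic acid. Detection used a quadrupole time-of-flight mass spectrometer in positive and negative ionization mode, and data collection spanned 3 months. Retention time was obtained from adduct peaks picked computationally and each checked manually.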

Row | RP-LC retention time | SMILES
1 | 728 s | COCCNC(=O)CN1C(=O)C2CCCCN2c2ccc(S(=O)(=O)N3CCCC3)cc21 (stereo unspecified)
2 | 969 s | CCOc1ccc(-n2nnc3c(=O)n(C/C=C/c4ccccc4)cnc32)cc1
3 | 891 s | Cc1cn2c(S(=O)(=O)N3CCC4(CC3)OCCO4)c(C(C)C)nc2s1
4 | 621 s | O=C(c1cc(-c2ccco2)on1)N1CCn2c1nc1ccccc12
5 | 579 s | CCN1CCN(CCNC(=O)c2ccc3c(c2)N(C)C(=O)C2CCCCN32)CC1 (stereo unspecified)
6 | 1060 s | O=S(=O)(c1cc(-c2nnc(C3CC3)o2)co1)N1CCN(c2cccc(Cl)c2)CC1
7 | 985 s | COc1ccc(NC(=O)N2CC3CCCN3c3ccccc32)cc1 (stereo unspecified)
8 | 594 s | CC(C)CNC(=O)N1CCC(CCOc2ccncc2)CC1
9 | 642 s | Cc1nn(-c2ccc(Cl)cc2)c(C)c1S(=O)(=O)N1CCC(C(=O)N2CCN(C)CC2)CC1
10 | 870 s | O=C(COc1ccc(Cl)cc1)NCc1ccc2c(c1)OCCCO2
11 | 616 s | Cc1noc(C)c1S(=O)(=O)NCCn1c(C)cnc1-c1ccccc1
12 | 618 s | CCOc1ccc(CNc2nc3ccncc3n(CC)c2=O)cc1OC
13 | 664 s | CC1=C(C(=O)N2CCOCC2)C(c2cccc(Br)c2)C2=C(CCCC2=O)N1 (stereo unspecified)
14 | 1020 s | CCCCOC(=O)c1[nH]c2c(c1C)C(=O)CC(c1cc(OC)c(OC)c(OC)c1)C2 (stereo unspecified)
15 | 649 s | CN(C)CCCNC(=O)C1CCN(c2nc3ccc(-c4ccccc4F)nc3s2)CC1
16 | 825 s | O=C(NCc1cccnc1)C1CCCN(S(=O)(=O)c2cc(-c3noc(C4CCC4)n3)cs2)C1 (stereo unspecified)
17 | 719 s | CCN1C(=O)COc2ccc(-c3csc(NC(C)=O)n3)cc21
18 | 693 s | CC1=CC(=O)CC(C)(C)C1(O)/C=C/C(C)=C/C(=O)O (stereo unspecified)
19 | 963 s | Cc1ccc(CNC(=O)Cc2csc3nc(-c4cccc(Br)c4)cn23)cc1
20 | 795 s | CCOC(=O)CNC(=O)N1CCCC1c1ccc(Cl)cc1 (stereo unspecified)
21 | 1030 s | COc1ccc(NC(=O)N2c3ccccc3CC2c2nc(C3CC3)no2)c(OC)c1 (stereo unspecified)
22 | 953 s | CCc1cccc(NC(=O)C2CCN(S(=O)(=O)c3ccc4c(c3)sc(=O)n4C(C)C)CC2)c1

Row | RP-LC retention time | SMILES
23 | 802 s | CC1=C(c2ccc(F)cc2)S(=O)(=O)N=C1N1CCC(C(=O)NCCc2ccco2)CC1
24 | 730 s | Cc1sc2ncnc(SCC(=O)Nc3ccc(S(N)(=O)=O)cc3)c2c1C
25 | 757 s | CN(CCc1noc(-c2ccc(C(=O)N3CCOCC3)cc2)n1)C(=O)Cc1ccc(Cl)cc1
26 | 817 s | CC(C)CC(=O)Nc1ccc(-n2cnc(C(=O)N3CCc4ccccc4C3)c2)nc1
27 | 839 s | CCOc1cc(C(=O)NC2CCN(c3cc(-c4cccs4)[nH]n3)C2)cc(OCC)c1OCC (stereo unspecified)
28 | 952 s | COC(=O)c1cc(C)nc2c1c(=O)n(Cc1cccc(C#N)c1)c(=O)n2C
29 | 960 s | Cc1c(C(=O)C(=O)Nc2cccc(F)c2)c2ccccc2n1C
30 | 885 s | COc1ccc(C2OC(c3cc(OC)c(OC)c(OC)c3)=NN2C(C)=O)c(OC)c1 (stereo unspecified)
31 | 1080 s | CCN(CC)S(=O)(=O)c1cc(-c2nnc(-c3ccccc3)o2)ccc1C
32 | 932 s | Cc1noc(-c2ccc(OC3CN(S(=O)(=O)c4cccc5nsnc45)C3)cc2)n1
33 | 679 s | CCCOc1ccc(CN2CCN(C(=O)c3ccoc3)CC2)cn1
34 | 726 s | O=C(Cn1nc2n(c1=O)CCCCC2)Nc1ccc(Br)cc1
35 | 755 s | Cc1ccc2nc(-c3ccc(N4CCOCC4)cc3)c(Nc3ccccc3C)n2c1
36 | 888 s | COc1ccccc1CNC(=O)CSc1cc(N2CCN(c3ccccc3OC)CC2)ncn1
37 | 928 s | CCOc1ccc(NC(=O)CSc2nccc(N3CCN(c4cc(C)ccc4C)CC3)n2)cc1
38 | 1040 s | O=c1ccc(-c2ccc3c(c2)OCO3)nn1Cc1nc(-c2cccc(Cl)c2)no1
39 | 692 s | CC(C)c1cc(=O)n(CC(=O)Nc2nc3c(s2)CCCC3)cn1
40 | 821 s | Cc1ccc(NS(=O)(=O)c2cc(-c3[nH]ncc3C(=O)N3CCCCC3)oc2C)cc1C
41 | 803 s | Cc1cc2c(c(=O)n(-c3ccccc3)c(=O)n2CC(=O)Nc2ccccc2F)n1C
42 | 894 s | CCCn1c(=O)c(-c2ccc(C(=O)NC(C)C)cc2)nc2cccnc21
43 | 702 s | COc1ccc(NC(=O)CSc2nccnc2-n2nc(C)cc2C)cc1OC
44 | 936 s | CCOC(=O)c1[nH]c(C)c(CN(Cc2ccco2)C(=O)Nc2ccc(F)cc2)c1C

Row | RP-LC retention time | SMILES
45 | 885 s | COc1ccc(-c2nc(-c3ccc(NS(C)(=O)=O)cc3)no2)c(OC)c1
46 | 831 s | CNC(=O)c1cnn2c3c(cnc12)CCCCCC3
47 | 922 s | COc1ccccc1NC(=O)c1cnc2c(c1)c(=O)n(C)c(=O)n2-c1ccccc1
48 | 775 s | CCOC(=O)C1CCN(C(=O)Cn2c3ccccc3c3cnn(C)c(=O)c32)CC1
49 | 1000 s | O=C(Cn1nc(N2CCSCC2)c2ccccc2c1=O)Nc1ccc(Br)cc1
50 | 704 s | O=C(NCc1[nH]nc2ccccc12)c1ccc2c(c1)OCO2
51 | 941 s | Cc1cc(-c2nnc(-c3ccco3)o2)c(C)n1CC(=O)Nc1ccc(F)c(Cl)c1
52 | 809 s | Cc1cccc(N2C(=O)CN(S(C)(=O)=O)CC2(C)C(=O)NCc2ccc(F)cc2)c1C (stereo unspecified)
53 | 859 s | COc1ccc(S(=O)(=O)N2CCCC(C(=O)N(C)Cc3ccccc3)C2)cc1OC (stereo unspecified)
54 | 735 s | C=CCc1cc(OC)c(O)c(C(=O)NCCO)c1
55 | 573 s | COc1ccc(S(=O)(=O)N2CCN(CCO)CC2)c2ccccc12
56 | 1020 s | COC(=O)c1cc(S(=O)(=O)N2CCCC2C(=O)Nc2cccc3c2CCCC3)cn1C (stereo unspecified)
57 | 506 s | Cc1ccsc1CN1CCC(n2c(C)cnc2-c2ccncc2)C1 (stereo unspecified)
58 | 859 s | CC(C)n1c(N2CCCN(C(=O)c3ccc(F)c(F)c3)CC2)cc(=O)n(C(C)C)c1=O
59 | 806 s | Cc1ccc(S(=O)(=O)N2CCCOC2CNC(=O)C(=O)NCc2cccs2)cc1 (stereo unspecified)
60 | 636 s | O=C(NCC1CCN(C(=O)c2ccccc2F)CC1)C(=O)Nc1ccon1
61 | 776 s | Cc1ccc(N(C)S(=O)(=O)c2cc(-c3[nH]ncc3C(=O)N3CCCC3)oc2C)cc1
62 | 659 s | COc1ccc(S(=O)(=O)N2CC3CN(C(=O)C4CCOC4)CC(C2)O3)cc1 (stereo unspecified)
63 | 1200 s | COc1cccc(-n2c(=O)c(C(=O)NCCc3ccccc3)c(O)c3cccnc32)c1
64 | 1140 s | CCCN1C(=O)COc2ccc(-c3noc(-c4cc(OC)c(OC)c(OC)c4)n3)cc21
65 | 1070 s | COc1ccccc1-c1noc(Cn2ccn3nc(-c4cccc5ccccc45)cc3c2=O)n1
66 | 554 s | CNC(=O)[C@@H]1C[C@H](Oc2cccnc2)CN1C(=O)C1CC=CC1
